Source: US9073929B2, “Aldosterone synthase inhibitors” (ElexoPharm GmbH, priority 2011, dated 2015)

Key:
human CYP11B1 = target: T1, human CYP11B1 (Homo sapiens, UniProt P15538); assay: V79-Human-CYP11B1 cell assay (cortisol HTRF); assay type: cell-based; details: V79-hCYP11B1 cells, 250 nM 11-deoxycortisol, 3 hours
T1 construct: expressed in transfected cells; host or cells: V79MZh11B1 cells
T1 sequence (P15538 25-503): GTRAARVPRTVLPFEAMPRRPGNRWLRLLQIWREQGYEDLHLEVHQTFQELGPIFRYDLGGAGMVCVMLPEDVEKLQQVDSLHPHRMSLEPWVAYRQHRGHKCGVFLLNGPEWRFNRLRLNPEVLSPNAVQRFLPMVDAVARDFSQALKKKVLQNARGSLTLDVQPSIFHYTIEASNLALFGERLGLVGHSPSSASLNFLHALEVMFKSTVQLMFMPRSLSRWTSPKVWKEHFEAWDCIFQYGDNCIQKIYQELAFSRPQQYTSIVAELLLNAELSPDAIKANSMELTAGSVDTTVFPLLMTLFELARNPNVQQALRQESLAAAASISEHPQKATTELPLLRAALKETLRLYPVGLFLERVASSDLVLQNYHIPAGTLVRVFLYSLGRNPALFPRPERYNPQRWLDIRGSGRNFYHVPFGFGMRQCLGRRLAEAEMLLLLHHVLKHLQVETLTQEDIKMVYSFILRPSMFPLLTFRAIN
Procedure: Methods for V79-Human-CYP11B2 and V79-Human-CYP11B1 Assays: V79 cell lines stably expressing the either the human CYP11B2 or the human CYP11B1 enzyme were generated using a standard transfection protocol. V79 cells were transfected with plasmids pTriEx3-Hygro-hCyp11B2 or pTriEx3-Hygro-hCyp11B1 using Lipofectamine2000 reagent. […] Single cell clones were generated by infinite dilution in DMEM supplemented with 10% FBS and 400 μg/mL hygromycin until single colonies were obtained. […] For testing of inhibitors, cells were harvested at 80% confluency with 0.5% Trypsan-EDTA, washed once in PBS, and reconstituted in DMEM+0.1% BSA media at a cell concentration of 400,000 cells/mL. 25 μl of cells were added to a 384 well tissue culture treated plate and mixed with 0.25 μl of inhibitor or DMSO (1% final DMSO concentration) for 1 hour at 37° C., 5% CO2. […] The reaction was carried out for 3 hours at 37° C., 5% CO2 and was stopped by harvesting the supernatants. […] IC50's for the inhibitor were determined by plotting the amount of product formed against the concentration of inhibitor using sigmoidal dose-response curve (variable slope) fit in GraphPad.

human CYP11B2 = target: T2, human CYP11B2 (Homo sapiens, UniProt P19099); assay: V79-Human-CYP11B2 cell assay (aldosterone HTRF); assay type: cell-based; details: V79-hCYP11B2 cells, 125 nM 11-deoxycorticosterone, 3 hours
T2 construct: expressed in transfected cells; host or cells: V79 cells (clone V79-hCYP11B2-CLE9)
T2 sequence (P19099 25-503): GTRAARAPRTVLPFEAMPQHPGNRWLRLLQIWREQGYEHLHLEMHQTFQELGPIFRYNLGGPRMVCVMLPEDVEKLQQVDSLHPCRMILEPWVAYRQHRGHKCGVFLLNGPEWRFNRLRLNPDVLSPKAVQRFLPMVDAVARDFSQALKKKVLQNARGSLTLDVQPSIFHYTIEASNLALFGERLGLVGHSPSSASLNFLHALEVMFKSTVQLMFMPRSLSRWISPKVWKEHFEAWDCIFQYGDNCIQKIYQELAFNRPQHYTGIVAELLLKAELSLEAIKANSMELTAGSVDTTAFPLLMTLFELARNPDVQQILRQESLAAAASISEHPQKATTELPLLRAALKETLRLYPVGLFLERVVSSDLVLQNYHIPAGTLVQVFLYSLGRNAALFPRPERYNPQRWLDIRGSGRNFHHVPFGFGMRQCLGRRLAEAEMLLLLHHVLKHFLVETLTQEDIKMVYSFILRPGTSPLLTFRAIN
Procedure: Methods for V79-Human-CYP11B2 and V79-Human-CYP11B1 Assays:
V79 cell lines stably expressing the either the human CYP11B2 or the human CYP11B1 enzyme were generated using a standard transfection protocol. V79 cells were transfected with plasmids pTriEx3-Hygro-hCyp11B2 or pTriEx3-Hygro-hCyp11B1 using Lipofectamine2000 reagent. V79 cells that stably express the human CYP11B2 or human CYP11B1 enzyme were selected for and maintained in DMEM supplemented with 10% FBS and 400 μg/mL hygromycin for ˜2 weeks. Single cell clones were generated by infinite dilution in DMEM supplemented with 10% FBS and 400 μg/mL hygromycin until single colonies were obtained. Clones V79-hCYP11B2-CLE9 and V79-hCYP11B1-8C7, were determined to produce the most aldosterone and cortisol, respectively, and were selected for inhibitor screening. […] The amount of product in the supernatant (aldosterone for CYP11B2 assay and cortisol for the CYP11B1 assay) was measured using HTRF-based assay kit (Aldosterone HTRF-CisBio#64ALDPEB, Cortisol HTRF-CisBio #631DC002-CORT). IC50's for the inhibitor were determined by plotting the amount of product formed against the concentration of inhibitor using sigmoidal dose-response curve (variable slope) fit in GraphPad.

## Cc1c(F)cncc1-c1cc(F)c2c(c1)CCc1nncn1-2 [Example 17, 9-fluoro-7-(5-fluoro-4-methylpyridin-3-yl)-4,5-dihydro-[1,2,4]triazolo[4,3a] quinoline]
Human CYP11B1
  IC50: 1500 nM

## Cc1c(-c2cc(Cl)c3c(c2)CCc2nnc(C)n2-3)cncc1C(C)(O)C(F)(F)F (centres unmarked) [Example 38, 1-(5-(9-chloro-1-methyl-4,5-dihydro-[1,2,4]triazolo[4,3-a]quinolin-7-yl)-4-methylpyridin-3-yl)-1,1,1-trifluoropropan-2-ol]
Human CYP11B1
  IC50: 527 nM

## COC(=O)C1(c2cncc(-c3ccc4c(c3)CCc3nncn3-4)c2)CC1 [Step D, p 76, methyl 1-[5-(4,5-dihydro[1,2,4]triazolo[4,3-a]quinolin-7-yl)-3-pyridinyl]cyclopropanecarboxylate]
Human CYP11B2
  IC50: 17 nM
Human CYP11B1
  IC50: 157 nM

## Cc1c(-c2cc(Cl)c3c(c2)CCc2nnc(C)n2-3)cncc1C(C)(O)C(F)(F)F (centres unmarked) [Example 37, 1-(5-(9-chloro-1-methyl-4,5-dihydro-[1,2,4]triazolo[4,3-a]quinolin-7-yl)-4-methylpyridin-3-yl)-1,1,1-trifluoropropan-2-ol]
Human CYP11B1
  IC50: 69 nM
